# Test results taken from ChEMBL document CHEMBL2057073, “Synthesis and structure-activity relationship studies of 1,3-disubstituted 2-propanols as BACE-1 inhibitors” (Bioorg Med Chem Lett, 2012).
# Experiments:
# [1] = target: T1, Beta-secretase 1 (Homo sapiens, UniProt P56817); assay: Inhibition of BACE1 by FRET assay
# [2] = target: T1, Beta-secretase 1; assay: Inhibition of BACE1 at 50 uM by FRET assay
# [3] = target: T1, Beta-secretase 1; assay: Inhibition of BACE1 at 100 uM by FRET assay
# [4] = target: T1, Beta-secretase 1; assay: Inhibition of BACE1 at 25 uM by FRET assay
# [5] = target: Cathepsin D (Homo sapiens, UniProt P07339); assay: Inhibition of cathepsin D by FRET assay
# [6] = organism: Homo sapiens; assay: Selectivity ratio of IC50 for cathepsin D to IC50 for BACE1
# Chain of Cathepsin D (P07339 65-162 limits assumed): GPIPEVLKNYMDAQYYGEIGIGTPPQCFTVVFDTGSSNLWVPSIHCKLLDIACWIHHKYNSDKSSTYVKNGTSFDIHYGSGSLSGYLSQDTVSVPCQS
# Chain of Cathepsin D (P07339 169-412 limits assumed): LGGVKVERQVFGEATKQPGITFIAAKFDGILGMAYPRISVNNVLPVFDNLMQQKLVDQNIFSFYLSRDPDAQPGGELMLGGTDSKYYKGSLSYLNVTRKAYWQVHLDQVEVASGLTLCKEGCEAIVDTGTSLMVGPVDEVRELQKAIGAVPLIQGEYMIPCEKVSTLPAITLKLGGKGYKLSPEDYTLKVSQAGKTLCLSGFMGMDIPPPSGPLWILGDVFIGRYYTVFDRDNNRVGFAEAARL
# T1 sequence (P56817 whole entry): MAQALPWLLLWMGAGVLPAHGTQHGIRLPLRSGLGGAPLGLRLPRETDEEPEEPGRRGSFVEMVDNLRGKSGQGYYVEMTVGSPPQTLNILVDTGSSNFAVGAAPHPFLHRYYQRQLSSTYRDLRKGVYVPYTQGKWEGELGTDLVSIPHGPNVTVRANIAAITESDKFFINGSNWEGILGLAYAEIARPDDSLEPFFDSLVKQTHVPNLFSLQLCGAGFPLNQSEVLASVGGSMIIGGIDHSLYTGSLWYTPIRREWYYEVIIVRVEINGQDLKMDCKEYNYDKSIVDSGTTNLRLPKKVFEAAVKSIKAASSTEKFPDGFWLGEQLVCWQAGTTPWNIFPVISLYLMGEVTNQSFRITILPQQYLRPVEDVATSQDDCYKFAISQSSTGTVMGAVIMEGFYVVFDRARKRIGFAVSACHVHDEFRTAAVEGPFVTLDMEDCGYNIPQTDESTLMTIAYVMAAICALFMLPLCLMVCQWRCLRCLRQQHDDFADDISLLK
IC50 [1],inhibition [2],inhibition [3],inhibition [4],IC50 [5],Ratio IC50 [6],SMILES
10.3 µM,72%,80%,60%,,,CCc1ccccc1SCC(O)Cn1c(-c2ccccc2)cc2ccccc21 (stereo not drawn)
15.2 µM,90%,87%,58%,,,COc1ccc(SCC(O)Cn2c3c(c4ccccc42)CCCC3)cc1 (stereo not drawn)
7.38 µM,,,,> 300 µM,,NCCNC(CSc1ccc2ccccc2c1)Cn1c2ccccc2c2ccccc21 (racemic)
21.4 µM,89%,92%,73%,,,Cc1ccccc1SCC(O)Cn1c2c(c3ccccc31)CCC2 (stereo not drawn)
8.82 µM,,,,> 300 µM,,OC(Cn1c2ccccc2c2ccccc21)C(O)Cn1c2ccccc2c2ccccc21 (stereo not drawn)
> 80 µM,,,,,,O=C(CSc1ccc2ccccc2c1)Cn1c2ccccc2c2ccccc21
36.1 µM,87%,100%,69%,,,Nc1cccc(SCC(O)Cn2c3ccccc3c3ccccc32)c1 (stereo not drawn)
> 100 µM,,,,,,OC(CCn1c2ccccc2c2ccccc21)Cn1c2ccccc2c2ccccc21 (stereo not drawn)
15.7 µM,,,,,,NC(CSc1ccc2ccccc2c1)Cn1c2ccccc2c2ccccc21 (racemic)
7.98 µM,,,,> 300 µM,,O[C@@H](CSc1ccc2ccccc2c1)Cn1c2ccccc2c2ccccc21
,71%,90%,40%,,,CCc1cccc2ccn(CC(O)CSc3cc(C)cc(C)c3)c12 (stereo not drawn)
11 µM,86%,95%,68%,,,OC(CSc1ccccc1F)Cn1c2c(c3ccccc31)CCCC2 (stereo not drawn)
,74%,85%,27%,,,COc1ccc(SCC(O)Cn2c3c(c4ccccc42)CCC3)cc1 (stereo not drawn)
,37%,83%,0%,,,COc1ccc(SCC(O)Cn2c(C)c(C)c3ccccc32)c(OC)c1 (stereo not drawn)
10.5 µM,,,,,,OC(CSc1ccc2ccccc2c1)Cn1ccc2ccccc21 (stereo not drawn)
,81%,96%,53%,,,OC(CSCCCc1ccccc1)Cn1c2c(c3ccccc31)CCC2 (stereo not drawn)
> 30 µM,,,,,,OC(CSc1ccc2ccccc2c1)CSc1ccc2ccccc2c1
9.6 µM,73%,81%,62%,> 300 µM,,OC(COc1ccc(Cc2ccccc2)cc1)CSc1ccccc1Cl (stereo not drawn)
0.71 µM,,,,> 300 µM,> 422,OC(Cn1c2ccccc2c2ccccc21)Cn1c2ccccc2c2ccccc21
,41%,86%,48%,,,CCc1cccc2ccn(CC(O)CSc3ccc(F)cc3)c12 (stereo not drawn)

# The remaining lines, values behind:
SMILES,IC50 [1],inhibition [2],inhibition [3],inhibition [4],IC50 [5],Ratio IC50 [6]
OC(CCSc1ccc2ccccc2c1)Cn1c2ccccc2c2ccccc21 (stereo not drawn),6.74 µM,,,,> 300 µM,
Oc1ccc(SCC(O)Cn2c(-c3ccccc3)cc3ccccc32)cc1 (stereo not drawn),13.6 µM,77%,86%,72%,,
O[C@H](CSc1ccc2ccccc2c1)Cn1c2ccccc2c2ccccc21,5.39 µM,,,,> 300 µM,
c1ccc2cc(SCC(Cn3c4ccccc4c4ccccc43)N3CCNCC3)ccc2c1 (racemic),> 50 µM,,,,,
OC(CSc1ccc2ccccc2c1)C(O)Cn1c2ccccc2c2ccccc21 (stereo not drawn),10.1 µM,,,,,
OC(CSc1ccc2ccccc2c1)Cn1c2ccccc2c2ccccc21 (stereo not drawn),4.93 µM,74%,76%,64%,> 300 µM,50
OC(CSc1ccccc1Cl)Cn1c2c(c3ccccc31)CCCC2 (stereo not drawn),8.28 µM,99%,92%,68%,> 300 µM,
Oc1ccc(SCC(O)COc2ccc(Cc3ccccc3)cc2)cc1 (stereo not drawn),10.7 µM,100%,94%,85%,,
OC(CCn1c2ccccc2c2ccccc21)CSc1ccc2ccccc2c1 (stereo not drawn),4.31 µM,,,,> 300 µM,
OC(CSc1ccccc1F)Cn1c2ccccc2c2ccccc21 (stereo not drawn),5.36 µM,84%,89%,67%,> 300 µM,
CCc1cccc2ccn(CC(O)CSc3ccccc3Cl)c12 (stereo not drawn),7.52 µM,87%,99%,65%,> 300 µM,
OC(CSc1ccc2ccccc2c1)Cn1c(-c2ccccc2)cc2ccccc21 (stereo not drawn),6.66 µM,,,,> 300 µM,50
c1ccc2cc(SCCCn3c4ccccc4c4ccccc43)ccc2c1,7.52 µM,,,,> 300 µM,
Oc1ccccc1SCC(O)Cn1c(-c2ccccc2)cc2ccccc21 (stereo not drawn),25.4 µM,102%,86%,87%,,
Cc1c(C)n(CC(O)CSc2nnnn2-c2ccccc2)c2ccccc12 (stereo not drawn),,64%,93%,31%,,
